Experiments:
[1] = test system: A/WSN33/H1N1 influenza virus; assay: Prophylactic treatment of influenza-infected mice, lung index; details: 50 mg/kg intragastric, from two days before infection and 5 days after; 40 LD50 via nasal dripping; compared with 50 mg/kg ribavirin; FIG. 4
Description: […] Barb/C mice (6- to 8-week old) were randomly divided into 4 groups (A, B, C, D) with 5 mice in each group. All animals were marked by ear clipping and then treated with a specified preparation. Group A was a blank control group, Group B was a group in which PBS was used to resist virus infection, Group C was a group in which ribavirin was used to resist virus infection, and Group D was a group in which azithromycin was used to resist virus infection. Two days before the drugs being used to resist virus infection, the mice were treated with 50 mg/kg ribavirin and 50 mg/kg azithromycin by intragastric administration, and were infected with the influenza virus via nasal dripping with a dose of 40 LD50 (10^3 PFU/ml) on the third day (50 μl/mouse), and PBS was administered instead in the blank control group. The mice were administered consecutively for 5 days after virus infection, and the administration method was same as above. After 12 hours of fasting and water deprivation, the body weights were weighed, the lungs were incised aseptically and weighed after the mice were sacrificed by eyeball extirpating, and the lung indexes were calculated so as to evaluate the protective effect of azithromycin for mice in influenza virus infection, in which the calculation method of the lung index was a conventional calculation method known in the art.

[2] = test system: IAV-Luc influenza virus (A/Puerto Rico/8/34(PR8)-Luc); assay type: cell-based; details: 10 μM, A549 cells, three treatment schemes, detection after 24 h, FIG. 7
[3] = target: RNA polymerase of influenza virus (Influenza A virus, UniProt P03428+P03431+P03433); assay type: cell-based
[4] = test system: influenza A virus A/Puerto Rico/8/34(PR8)-Luc (IAV-Luc); assay type: cell-based
HA/NA-HIVLuc pseudovirus = assay type: cell-based, influenza virus; details: A549 cells, pre-incubated 8 h with concentration gradients, relative to absolute ethyl alcohol, FIG. 5

azithromycin
protective effect for mice in influenza virus infection (lung index) [1]: better protective effect for mice in influenza virus infection as compared with ribavirin
site of antiviral action (host cell versus virus particles) [2]: exerted antiviral effect mainly by acting on the virus particles
effect on the replication of the RNA polymerase of influenza virus [3]: did not affect the replication of the RNA polymerase of influenza virus
ability to resist influenza virus infection (infection rate relative to absolute ethyl alcohol control) [4]: had the ability to resist influenza virus infection
efficacy against influenza virus infection compared among the macrolide antibiotics ([4]; 10 μM, A549 cells, FIG. 1): had the strongest efficacy
inhibitory effect against influenza virus infection in the screening of small molecule compounds ([4]; 10 μM, A549 cells, FIG. 2): quite strong inhibitory effect against influenza virus infection
ability to resist influenza virus infection compared with oseltamivir ([4]; same concentration (10 μM), A549 cells, FIG. 3): stronger than that of oseltamivir
inhibition of influenza virus (pseudovirus) infection at various concentrations (HA/NA-HIVLuc pseudovirus): inhibited influenza virus infection and the inhibitory effect was concentration-dependent

erythromycin
ability to resist influenza virus infection (infection rate relative to absolute ethyl alcohol control) [4]: had the ability to resist influenza virus infection

midecamycin
ability to resist influenza virus infection (infection rate relative to absolute ethyl alcohol control) [4]: had the ability to resist influenza virus infection

roxithromycin
ability to resist influenza virus infection (infection rate relative to absolute ethyl alcohol control) [4]: had the ability to resist influenza virus infection

— patent publication US20200276217A1 (priority 2017, published 2020)
